Measured values from patent publication US10047051B2, “Substituted pyridines and method of use” (AbbVie S.á{acute over (.)}r.l., priority 2015, dated 2018).

Columns and labels:
Type in all cases: cell-based
[1] = biological target: ΔF508 CFTR (Homo sapiens, UniProt P13569, DEL508-508); assay: TECC assay, FRT-CFTR ΔF508 protocol; conditions: FRT cells stably transfected with ΔF508 CFTR, 3 μM VX809 24 hours, increase in transepithelial conductance (Gt), high expression cells
Procedure: For ΔF508 recordings, Fischer Rat Thyroid (FRT) cells stably transfected with ΔF508 CFTR (cell line from Rosalind Franklin University of Medicine and Science, North Chicago, Ill.) are plated on Transwell® supports (Costar 6.5 mm diameter, 0.4 μm pore size Cat n#3378). The cells are grown for 8-10 days under liquid-liquid interface conditions prior to electrophysiological readings. The differentiated cells are treated with 3 μM VX809 (2626 South Loop West, Suite 225, Houston, Tex. 77054 USA, Cat n# S1565) to allow sufficient expression of properly folded CFTR protein on the membrane (24 hours basolateral treatment), prior to electrophysiological recordings. For electrophysiological recording, the FRT-ΔF508 cells are mounted in the TECC heating plate for electrophysiological measurement and kept at 37° C. The epithelia are bathed in HEPES buffered culturing medium without FBS on both the basolateral and apical sides. Apical amiloride is used to inhibit the endogenous ENaC currents while forkolin is applied on both apical and basolateral side to stimulate CFTR. After forskolin triggering, compounds are added on both sides to test their potential for increasing CFTR gating. Measurements are done during a 10 minute timeframe with recordings every 2 minutes. The increase in transepithelial conductance (Gt) is used as a measure for the increased CFTR activity, EC50 values can be generated by measuring impact of different concentrations of compound on Gt of the cells, for this purpose each transwell is treated with a different compound concentration. Inh-172, an inhibitor specific for CFTR, is used to test the specificity of the tested compounds.

[2] = biological target: G551D CFTR (Homo sapiens, UniProt P13569, G551D); assay: TECC assay, FRT-CFTR G551D protocol; conditions: FRT cells stably transfected with G551D CFTR, high expression cells, increase in Isc after forskolin
Chain of G551D CFTR (P13569 whole entry G551D): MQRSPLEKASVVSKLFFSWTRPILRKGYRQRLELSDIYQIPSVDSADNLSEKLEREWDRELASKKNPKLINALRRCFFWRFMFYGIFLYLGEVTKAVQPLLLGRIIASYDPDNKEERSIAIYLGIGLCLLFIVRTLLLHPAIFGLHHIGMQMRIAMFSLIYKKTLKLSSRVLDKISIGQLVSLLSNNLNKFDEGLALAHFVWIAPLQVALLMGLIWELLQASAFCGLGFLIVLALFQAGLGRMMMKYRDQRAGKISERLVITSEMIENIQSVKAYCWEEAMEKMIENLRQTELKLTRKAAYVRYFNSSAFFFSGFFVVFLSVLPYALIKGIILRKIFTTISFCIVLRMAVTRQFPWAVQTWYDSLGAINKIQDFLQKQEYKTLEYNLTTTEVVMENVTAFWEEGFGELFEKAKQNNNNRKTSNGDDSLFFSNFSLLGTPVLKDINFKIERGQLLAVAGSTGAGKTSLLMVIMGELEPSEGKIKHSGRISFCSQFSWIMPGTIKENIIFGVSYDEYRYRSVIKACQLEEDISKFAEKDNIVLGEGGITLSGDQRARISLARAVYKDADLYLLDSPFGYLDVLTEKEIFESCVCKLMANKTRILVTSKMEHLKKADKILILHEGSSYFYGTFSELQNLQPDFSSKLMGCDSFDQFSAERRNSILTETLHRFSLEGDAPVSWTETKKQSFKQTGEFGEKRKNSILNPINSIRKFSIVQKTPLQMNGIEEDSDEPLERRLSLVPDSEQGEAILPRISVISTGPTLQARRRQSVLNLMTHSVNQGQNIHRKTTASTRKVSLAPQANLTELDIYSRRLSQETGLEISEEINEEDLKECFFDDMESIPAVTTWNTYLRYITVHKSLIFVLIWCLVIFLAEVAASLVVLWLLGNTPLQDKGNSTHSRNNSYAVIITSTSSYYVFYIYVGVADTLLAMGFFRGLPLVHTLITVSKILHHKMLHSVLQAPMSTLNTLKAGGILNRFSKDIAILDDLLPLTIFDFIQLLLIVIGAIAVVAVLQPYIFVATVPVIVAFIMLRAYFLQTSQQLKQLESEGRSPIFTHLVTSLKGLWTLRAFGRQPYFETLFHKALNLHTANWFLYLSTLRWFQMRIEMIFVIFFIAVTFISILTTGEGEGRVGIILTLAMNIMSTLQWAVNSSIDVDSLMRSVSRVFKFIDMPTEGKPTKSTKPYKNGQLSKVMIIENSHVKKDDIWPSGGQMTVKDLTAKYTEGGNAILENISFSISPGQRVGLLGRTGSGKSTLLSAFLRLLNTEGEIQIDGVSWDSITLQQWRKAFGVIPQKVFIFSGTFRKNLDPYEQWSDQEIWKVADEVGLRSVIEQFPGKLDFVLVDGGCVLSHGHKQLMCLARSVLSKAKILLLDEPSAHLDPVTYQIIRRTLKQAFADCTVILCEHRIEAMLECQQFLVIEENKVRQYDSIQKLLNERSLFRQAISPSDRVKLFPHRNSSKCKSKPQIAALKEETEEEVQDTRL
Procedure: For G551D recordings, Fischer Rat Thyroid (FRT) cells stably transfected with G551D CFTR (a low CFTR-G551D expressing cell line and a high expressing CFTR-G551D cell line from Rosalind Franklin University of Medicine and Science, North Chicago, Ill.) are plated on Transwell® supports (Costar 6.5 mm diameter, 0.4 μm pore size). The cells are grown for 8-10 days under liquid-liquid interface conditions prior to electrophysiological readings. For electrophysiological recording, the FRT-G551D cells are mounted in the TECC heating plate for electrophysiological measurement and kept at 37° C. The epithelia are bathed in HEPES buffered culturing medium without FBS on both the basolateral and apical sides. Apical amiloride is used to inhibit the endogenous ENaC currents while forkolin is applied on both apical and basolateral side to stimulate CFTR. After forskolin triggering, compounds are added on both sides to test their potential for increasing CFTR gating. Measurements are done during a 10 minute timeframe with recordings every 2 minutes. The increase in Isc is used as a measure for the increased CFTR activity, EC50 values can be generated by measuring impact of different concentrations of compound on Isc on the cells, for this purpose each transwell is treated with a different compound concentration. Inh-172, an inhibitor specific for CFTR, is used to test the specificity of the tested compounds.

[3] = biological target: T1, CFTR G551D/ΔF508 (Homo sapiens, UniProt P13569, G551D); assay: TECC assay, primary bronchial epithelial cells, CFTR G551D/ΔF508; conditions: primary bronchial epithelial cells heterozygous G551D/ΔF508, acute mode, increase in Isc after forskolin
T1 construct: host or cells: primary human bronchial epithelial cells from CF patients heterozygous G551D/ΔF508, no corrector pre-treatment
T1 sequence (P13569 whole entry F508del/G551D): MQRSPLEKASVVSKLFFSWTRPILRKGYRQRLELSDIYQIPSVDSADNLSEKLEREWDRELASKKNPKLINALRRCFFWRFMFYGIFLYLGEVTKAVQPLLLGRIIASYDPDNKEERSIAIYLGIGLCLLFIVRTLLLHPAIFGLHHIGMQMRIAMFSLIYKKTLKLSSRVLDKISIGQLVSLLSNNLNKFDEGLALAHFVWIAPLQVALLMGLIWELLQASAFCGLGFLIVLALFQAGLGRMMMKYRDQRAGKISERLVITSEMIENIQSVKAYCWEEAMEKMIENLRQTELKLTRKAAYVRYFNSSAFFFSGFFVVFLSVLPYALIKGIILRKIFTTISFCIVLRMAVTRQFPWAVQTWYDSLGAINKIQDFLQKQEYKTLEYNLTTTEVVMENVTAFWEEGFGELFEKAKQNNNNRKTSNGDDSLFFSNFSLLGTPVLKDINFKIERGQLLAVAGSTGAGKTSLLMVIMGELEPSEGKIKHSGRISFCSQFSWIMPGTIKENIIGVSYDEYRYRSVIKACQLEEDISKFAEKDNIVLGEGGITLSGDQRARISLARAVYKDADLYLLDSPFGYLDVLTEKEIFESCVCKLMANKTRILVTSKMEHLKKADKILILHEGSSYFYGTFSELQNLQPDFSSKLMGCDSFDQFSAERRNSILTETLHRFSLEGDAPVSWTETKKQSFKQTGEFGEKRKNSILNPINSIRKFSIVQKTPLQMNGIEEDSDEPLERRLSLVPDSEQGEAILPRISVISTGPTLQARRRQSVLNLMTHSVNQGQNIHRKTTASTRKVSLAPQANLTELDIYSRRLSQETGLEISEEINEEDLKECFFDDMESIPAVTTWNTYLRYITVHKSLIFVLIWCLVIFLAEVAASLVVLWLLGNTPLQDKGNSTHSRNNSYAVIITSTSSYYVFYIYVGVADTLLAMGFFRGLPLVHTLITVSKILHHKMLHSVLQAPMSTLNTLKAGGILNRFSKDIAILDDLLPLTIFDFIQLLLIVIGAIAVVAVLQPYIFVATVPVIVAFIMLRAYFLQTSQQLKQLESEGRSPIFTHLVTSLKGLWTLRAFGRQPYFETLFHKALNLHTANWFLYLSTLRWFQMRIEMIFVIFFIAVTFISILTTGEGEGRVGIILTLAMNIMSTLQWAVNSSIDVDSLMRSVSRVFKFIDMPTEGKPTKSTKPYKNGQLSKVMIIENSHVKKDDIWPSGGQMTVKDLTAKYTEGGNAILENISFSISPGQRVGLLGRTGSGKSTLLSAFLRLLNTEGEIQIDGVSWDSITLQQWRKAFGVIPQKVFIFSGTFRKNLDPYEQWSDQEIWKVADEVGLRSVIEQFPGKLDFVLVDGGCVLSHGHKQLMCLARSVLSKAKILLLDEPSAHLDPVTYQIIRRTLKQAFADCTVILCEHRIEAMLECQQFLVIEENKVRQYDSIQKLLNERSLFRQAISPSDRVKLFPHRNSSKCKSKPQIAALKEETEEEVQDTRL
Procedure: The TECC (Tranepithelial Clamp Circuit, EP-design) assay measures the functionality of the cystic fibrosis Transmembrane Conductance regulator (CFTR) by measuring the short circuit current (Isc) generated over the basolateral and apical membrane of lung epithelial cells. In TECC the transepithelial potential PD and transepithelial resistance (Rt) are measured in an open circuit and transformed to Isc using Ohm's law. 24 Wells can be measured simultaneously allowing a higher throughput compared to Ussing chambers.
For this purpose, bronchial epithelial cells isolated from CF patients homozygous for the CFTR ΔF508 mutation (hAEC-CF, Epithelix) are plated on type IV collagen-coated Transwell® supports (Costar). Human airway epithelia are generated by provision of an air-liquid interface for 21 days to form well-differentiated polarized cultures that resemble in vivo pseudo-stratified ciliated epithelium (Fulcher, M. L., Gabriel, S., Burns, K. A., Yankaskas, J. R., Randell, S. H., 2005. Well-differentiated human airway epithelial cell cultures. Methods Mol. Med. 107, 183-206). In the case of the homozygous ΔF508 CFTR samples, the differentiated cells are treated with 3 μM VX809 (2626 South Loop West, Suite 225, Houston, Tex. 77054 USA, Cat n# S1565) to allow sufficient expression of properly folded CFTR protein on the membrane (48 hours basolateral treatment and 24 hours apical treatment), prior to electrophysiological recordings. For heterozygous G551D/ΔF508, differentiated cells are used as such for the recordings.
Information on the compounds can be retrieved on the homozygous ΔF508 CFTR samples looking at increased CFTR activity when compounds are added in an acute mode or in a chronic mode. On G551D/ΔF508 CFTR heterozygous samples compounds are added in an acute mode to the differentiated cells.
For the acute mode, for electrophysiological recording, the human airway epithelia are mounted in the TECC heating plate for electrophysiological measurement and kept at 37° C. The epithelia are bathed in a NaCl-Ringer solution (120 mM NaCl, 25 mM NaHCO3, 1.2 mM CaCl2, 1.2 mM MgCl2, 0.8 mM KH2PO4, 0.8 mM K2HPO4, pH 7.4, 5 mM glucose) on both the basolateral and apical sides. Apical amiloride is used to inhibit the endogenous ENaC currents while forkolin is applied on both apical and basolateral side to stimulate CFTR. After forskolin triggering, compounds are added on both sides to test their potential for increasing CFTR gating. Measurements are done during a 20 minute timeframe with recordings every 2 minutes. The increase in Isc is used as a measure for the increased CFTR activity, EC50 values can be generated by measuring impact of different concentrations of compound on Isc on primary cells, for this purpose each transwell is treated with a different compound concentration. Inh-172, an inhibitor specific for CFTR, is used to test the specificity of the tested compounds.
When subjected to this protocol, the following values were obtained. The difference between ΔIsc measured as DMSO (baseline), and the ΔIsc measured with the compound tested.

Chain of ΔF508 CFTR (P13569 with tags, fused parts or gaps DEL508-508): as the sequence (P13569 whole entry F508del/G551D) above, with D550G counted along it

SMILES | EC50 [1] [nM] | EC50 [2] [nM] | EC50 [3] [nM]
CC(O)(CNC(=O)c1ncc(S(=O)(=O)c2ccc(OC(F)(F)F)cc2)cc1N)C(F)(F)F (stereo not shown) [Compound 2, 3-amino-N-(3,3,3-trifluoro-2-hydroxy-2-methylpropyl)-5-{[4-(trifluoromethoxy)phenyl]sulfonyl}pyridine-2-carboxamide] | 70 |  | 
C[C@H](O)CNC(=O)c1ncc(S(=O)(=O)c2ccc(OC(F)(F)F)cc2)cc1N [Compound 21, 3-amino-N-[(2S)-2-hydroxypropyl]-5-{[4-(trifluoromethoxy)phenyl]sulfonyl}pyridine-2-carboxamide] |  | 1630 | 847
Nc1cc(S(=O)(=O)c2ccc(OC(F)(F)F)cc2)cnc1C(=O)NC[C@H](O)C(F)(F)F [Compound 26, 3-amino-N-[(2S)-3,3,3-trifluoro-2-hydroxypropyl]-5-{[4-(trifluoromethoxy)phenyl]sulfonyl}pyridine-2-carboxamide] |  | 1230 | 
Nc1cc(S(=O)(=O)c2ccc(F)cc2)cnc1C(=O)NC[C@@H](O)C(F)(F)F [Compound 36, 3-amino-5-[(4-fluorophenyl)sulfonyl]-N-[(2R)-3,3,3-trifluoro-2-hydroxypropyl]pyridine-2-carboxamide] | 63.2 | 735 | 1010
Nc1cc(S(=O)(=O)c2ccc(OC(F)(F)F)cc2)cnc1C(=O)NC[C@@H](O)C(F)(F)F [Compound 37, 3-amino-N-[(2R)-3,3,3-trifluoro-2-hydroxypropyl]-5-{[4-(trifluoromethoxy)phenyl]sulfonyl}pyridine-2-carboxamide] | 10.4 |  | 232
Nc1cc(S(=O)(=O)c2ccc(OC(F)(F)F)cc2)cnc1C(=O)N1CC(F)(F)C1 [Compound 40, (3-amino-5-{[4-(trifluoromethoxy)phenyl]sulfonyl}pyridin-2-yl)(3,3-difluoroazetidin-1-yl)methanone] |  |  | 443
COC[C@H](O)CNC(=O)c1ncc(S(=O)(=O)c2ccc(C(F)(F)F)cc2)cc1N [Compound 70, 3-amino-N-[(2R)-2-hydroxy-3-methoxypropyl]-5-{[4-(trifluoromethyl)phenyl]sulfonyl}pyridine-2-carboxamide] |  | 622 | 3520

Continued by falling EC50 [2], values first:

EC50 [1] [nM] | EC50 [2] [nM] | EC50 [3] [nM] | SMILES
 | 11700 | 5300 | Nc1cc(S(=O)(=O)c2ccc(OC(F)(F)F)cc2)cnc1C(=O)NCCO [Compound 14, 3-amino-N-(2-hydroxyethyl)-5-{[4-(trifluoromethoxy)phenyl]sulfonyl}pyridine-2-carboxamide]
 | 1200 |  | Nc1cc(S(=O)(=O)c2ccc(F)cc2)cnc1C(=O)NC[C@H](O)C(F)(F)F [Compound 25, 3-amino-5-[(4-fluorophenyl)sulfonyl]-N-[(2S)-3,3,3-trifluoro-2-hydroxypropyl]pyridine-2-carboxamide]
 | 1190 | 2380 | C[C@H](O)CNC(=O)c1ncc(S(=O)(=O)c2ccc(C(F)(F)F)cc2)cc1N [Compound 100, 3-amino-N-[(2S)-2-hydroxypropyl]-5-{[4-(trifluoromethyl)phenyl]sulfonyl}pyridine-2-carboxamide]
 | 824 | 632 | Nc1cc(S(=O)(=O)c2ccc(OC(F)(F)F)cc2)cnc1C(=O)NCC(O)COCC1CC1 (stereo not shown) [Compound 31, 3-amino-N-[3-(cyclopropylmethoxy)-2-hydroxypropyl]-5-{[4-(trifluoromethoxy)phenyl]sulfonyl}pyridine-2-carboxamide]
180 | 645 |  | CC(C)(O)CNC(=O)c1ncc(S(=O)(=O)c2ccc(OC(F)(F)F)cc2)cc1N [Compound 1, 3-amino-N-(2-hydroxy-2-methylpropyl)-5-{[4-(trifluoromethoxy)phenyl]sulfonyl}pyridine-2-carboxamide]
 | 443 |  | Nc1cc(S(=O)(=O)c2ccc(OC(F)(F)F)cc2)cnc1C(=O)NCC(O)C(F)(F)F (stereo not shown) [Compound 6, 3-amino-N-(3,3,3-trifluoro-2-hydroxypropyl)-5-{[4-(trifluoromethoxy)phenyl]sulfonyl}pyridine-2-carboxamide]
